Results: article PMC12406253, “Exploration of the Neuromodulatory Properties of Fyn and GSK-3β Kinases Exploiting 7‑Azaindole-Based Inhibitors” (Journal of Medicinal Chemistry, 2025)

Key:
[1] = system: primary rat cerebellar granule neurons (CGNs); experiment: Neuroprotection in CGNs, serum/potassium deprivation (MTT); format: cell-based; conditions: 5, 10, and 25 μM, 48 h
Excerpt: First, we evaluated the neuroprotective properties of the selected compounds in the same cell line, once the expression of Fyn and GSK-3β in this cellular model was verified (Figure S2), after a serum/potassium deprivation experiment, which simulates physiological aging (and mortality), triggering around 20% of cell death. In particular, 7 days differentiated CGNs were exposed to serum-free BME medium with low extracellular concentration of K^+ ions and treated at selected doses (i.e., 5, 10, and 25 μM) of compounds for 48 h. Neuronal viability was then determined with an MTT assay.
To evaluate the neuroprotective effect of our compounds, we tested increasing concentrations (5 μM, 10 μM, 25 μM) of compounds of interest in differentiated CGNs switched to serum-free BME medium with 5 mM KCl (serum-potassium deprivation) for 48 h to mimic in vitro the naturally occurring death of granule cells. Neuroprotection was evaluated through MTT assay.
For MTT assay, thiazolyl blue was added to the culture medium at a final concentration of 0.1 mg/mL. Following a 20 min incubation at 37 °C in the dark, the MTT precipitate was dissolved in 0.1 M Tris–HCl pH 7.5 buffer containing 5% Triton X-100 (all from Sigma-Aldrich) and absorbance was read at 570 nm in a microplate spectrophotometric reader (Bio-Rad).

[2] = molecular target: T1, SRPK1(h) (Homo sapiens, UniProt Q96SB4); experiment: Eurofins KinaseProfiler radiometric kinase assay; format: biochemical; conditions: read-out: SRPK1(h) % Residual activity
T1 construct: purchased Eurofins (Eurofins Cerep) KinaseProfiler

[3] = molecular target: T2, PAK2(h) (Homo sapiens, UniProt Q13177); experiment: Eurofins KinaseProfiler radiometric kinase assay; format: biochemical; conditions: read-out: PAK2(h) % Residual activity
T2 construct: purchased Eurofins KinaseProfiler (Eurofins Cerep)

[4] = molecular target: T3, IKKα(h) (Homo sapiens, UniProt O15111); experiment: Eurofins KinaseProfiler radiometric kinase assay; format: biochemical; conditions: read-out: IKKα(h) % Residual activity
T3 construct: purchased Eurofins KinaseProfiler (Eurofins Cerep)

[5] = molecular target: T4, DRAK1(h) (Homo sapiens, UniProt Q9UEE5); experiment: Eurofins KinaseProfiler radiometric kinase assay; format: biochemical; conditions: for remaining activity at 10 µM: read-out: DRAK1(h) % Residual activity
T4 construct: purchased Eurofins KinaseProfiler (Eurofins Cerep)
T4 sequence (Q9UEE5 1-414): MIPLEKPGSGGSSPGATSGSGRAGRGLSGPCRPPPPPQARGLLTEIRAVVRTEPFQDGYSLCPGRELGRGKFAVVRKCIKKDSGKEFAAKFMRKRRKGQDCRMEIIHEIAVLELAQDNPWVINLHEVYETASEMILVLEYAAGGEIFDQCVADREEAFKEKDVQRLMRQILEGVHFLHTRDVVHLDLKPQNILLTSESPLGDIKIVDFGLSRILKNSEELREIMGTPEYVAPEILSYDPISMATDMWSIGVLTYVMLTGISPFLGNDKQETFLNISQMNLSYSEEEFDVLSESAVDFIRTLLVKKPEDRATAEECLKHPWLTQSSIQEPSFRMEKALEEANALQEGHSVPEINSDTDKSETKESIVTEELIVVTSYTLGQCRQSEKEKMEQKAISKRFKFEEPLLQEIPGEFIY

[6] = molecular target: T5, KDR(h) (Homo sapiens, UniProt P35968); experiment: Eurofins KinaseProfiler radiometric kinase assay; format: biochemical; conditions: read-out: KDR(h) % Residual activity
T5 construct: purchased Eurofins KinaseProfiler (Eurofins Cerep)

[7] = molecular target: T6, PKCθ(h) (Homo sapiens, UniProt Q04759); experiment: Eurofins KinaseProfiler radiometric kinase assay; format: biochemical; conditions: read-out: PKCθ(h) % Residual activity
T6 construct: purchased Eurofins KinaseProfiler (Eurofins Cerep)

[8] = molecular target: T7, Rse(h) (Homo sapiens, UniProt Q06418); experiment: Eurofins KinaseProfiler radiometric kinase assay; format: biochemical; conditions: read-out: Rse(h) % Residual activity
T7 construct: purchased Eurofins (Eurofins Cerep) KinaseProfiler

[9] = molecular target: T8, CK2α2(h) (Homo sapiens, UniProt P19784); experiment: Eurofins KinaseProfiler radiometric kinase assay; format: biochemical; conditions: read-out: CK2α2(h) % Residual activity
T8 construct: purchased Eurofins KinaseProfiler (Eurofins Cerep)

[10] = molecular target: T9, Mnk2(h) (Homo sapiens, UniProt Q9HBH9); experiment: Eurofins KinaseProfiler radiometric kinase assay; format: biochemical; conditions: read-out: Mnk2(h) % Residual activity
T9 construct: purchased Eurofins KinaseProfiler (Eurofins Cerep)

[11] = molecular target: T10, MST1(h) (Homo sapiens, UniProt Q13043); experiment: Eurofins KinaseProfiler radiometric kinase assay; format: biochemical; conditions: read-out: MST1(h) % Residual activity
T10 construct: purchased Eurofins KinaseProfiler (Eurofins Cerep)

[12] = molecular target: T11, PKA(h) (Homo sapiens, UniProt P17612); experiment: Eurofins KinaseProfiler radiometric kinase assay; format: biochemical; conditions: for remaining activity at 10 µM: read-out: PKA(h) % Residual activity
T11 construct: purchased Eurofins KinaseProfiler (Eurofins Cerep)

[13] = molecular target: T12, CDK7/cyclinH/MAT1(h) (Homo sapiens, UniProt P50613); experiment: Eurofins KinaseProfiler radiometric kinase assay; format: biochemical; conditions: read-out: CDK7/cyclinH/MAT1(h) % Residual activity
T12 construct: purchased Eurofins KinaseProfiler (Eurofins Cerep)

[14] = molecular target: T13, MEK1(h) (Homo sapiens, UniProt Q02750); experiment: Eurofins KinaseProfiler radiometric kinase assay; format: biochemical; conditions: read-out: MEK1(h) % Residual activity
T13 construct: purchased Eurofins KinaseProfiler (Eurofins Cerep)

[15] = molecular target: T14, EGFR(h) (Homo sapiens, UniProt P00533); experiment: Eurofins KinaseProfiler radiometric kinase assay; format: biochemical; conditions: read-out: EGFR(h) % Residual activity
T14 construct: purchased Eurofins KinaseProfiler (Eurofins Cerep)

[16] = molecular target: T15, Lyn(h) (Homo sapiens, UniProt P07948); experiment: Eurofins KinaseProfiler radiometric kinase assay; format: biochemical; conditions: for Lyn inhibition: 10 µM; for remaining activity at 10 µM: read-out: Lyn(h) % Residual activity
T15 construct: purchased Eurofins KinaseProfiler (Eurofins Cerep)

[17] = molecular target: T16, CHK1(h) (Homo sapiens, UniProt O14757); experiment: Eurofins KinaseProfiler radiometric kinase assay; format: biochemical; conditions: read-out: CHK1(h) % Residual activity
T16 construct: purchased Eurofins KinaseProfiler (Eurofins Cerep)

[18] = molecular target: T17, Abl(h) (Homo sapiens, UniProt P00519); experiment: Eurofins KinaseProfiler radiometric kinase assay; format: biochemical; conditions: for Abl inhibition: 10 µM; for remaining activity at 10 µM: read-out: Abl(h) % Residual activity
T17 construct: purchased Eurofins KinaseProfiler (Eurofins Cerep)

[19] = molecular target: T18, EphA5(h) (Homo sapiens, UniProt P54756); experiment: Eurofins KinaseProfiler radiometric kinase assay; format: biochemical; conditions: read-out: EphA5(h) % Residual activity
T18 construct: purchased Eurofins KinaseProfiler (Eurofins Cerep)

[20] = molecular target: T19, MSK2(h) (Homo sapiens, UniProt O75676); experiment: Eurofins KinaseProfiler radiometric kinase assay; format: biochemical; conditions: for remaining activity at 10 µM: read-out: MSK2(h) % Residual activity
T19 construct: purchased Eurofins KinaseProfiler (Eurofins Cerep)

[21] = molecular target: T20, Fyn(h) (Homo sapiens, UniProt P06241); experiment: Eurofins KinaseProfiler radiometric kinase assay; format: biochemical; conditions: for Fyn inhibition: 10 µM; for remaining activity at 10 µM: read-out: Fyn(h) % Residual activity
T20 construct: purchased Eurofins KinaseProfiler (Eurofins Cerep)

[22] = molecular target: T21, PKBα(h) (Homo sapiens, UniProt P31749); experiment: Eurofins KinaseProfiler radiometric kinase assay; format: biochemical; conditions: read-out: PKBα(h) % Residual activity
T21 construct: purchased Eurofins KinaseProfiler (Eurofins Cerep)

[23] = molecular target: T22, SAPK2a(h) (Homo sapiens, UniProt Q16539); experiment: Eurofins KinaseProfiler radiometric kinase assay; format: biochemical; conditions: read-out: SAPK2a(h) % Residual activity
T22 construct: purchased Eurofins (Eurofins Cerep) KinaseProfiler

[24] = molecular target: T23, PKCα(h) (Homo sapiens, UniProt P17252); experiment: Eurofins KinaseProfiler radiometric kinase assay; format: biochemical; conditions: read-out: PKCα(h) % Residual activity
T23 construct: purchased Eurofins KinaseProfiler (Eurofins Cerep)

T19 sequence (O75676 whole entry): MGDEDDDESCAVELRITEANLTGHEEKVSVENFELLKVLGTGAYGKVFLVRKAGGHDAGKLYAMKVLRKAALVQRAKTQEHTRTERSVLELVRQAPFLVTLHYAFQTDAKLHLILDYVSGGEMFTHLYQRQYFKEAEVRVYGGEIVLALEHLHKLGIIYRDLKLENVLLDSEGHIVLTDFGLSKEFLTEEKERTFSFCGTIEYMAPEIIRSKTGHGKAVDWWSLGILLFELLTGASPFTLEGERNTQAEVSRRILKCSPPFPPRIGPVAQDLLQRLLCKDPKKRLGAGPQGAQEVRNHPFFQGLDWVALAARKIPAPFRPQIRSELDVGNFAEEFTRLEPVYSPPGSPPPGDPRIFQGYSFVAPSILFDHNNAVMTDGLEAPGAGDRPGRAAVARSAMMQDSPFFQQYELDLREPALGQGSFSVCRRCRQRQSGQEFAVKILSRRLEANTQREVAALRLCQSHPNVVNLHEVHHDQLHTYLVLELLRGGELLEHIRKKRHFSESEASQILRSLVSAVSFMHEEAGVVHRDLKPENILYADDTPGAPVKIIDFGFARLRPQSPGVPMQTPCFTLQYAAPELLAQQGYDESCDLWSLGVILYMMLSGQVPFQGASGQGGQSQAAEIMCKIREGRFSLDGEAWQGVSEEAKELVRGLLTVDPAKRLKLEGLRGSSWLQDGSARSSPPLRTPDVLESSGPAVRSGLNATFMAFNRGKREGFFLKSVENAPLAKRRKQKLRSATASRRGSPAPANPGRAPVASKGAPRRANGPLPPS
T15 sequence (P07948 whole entry): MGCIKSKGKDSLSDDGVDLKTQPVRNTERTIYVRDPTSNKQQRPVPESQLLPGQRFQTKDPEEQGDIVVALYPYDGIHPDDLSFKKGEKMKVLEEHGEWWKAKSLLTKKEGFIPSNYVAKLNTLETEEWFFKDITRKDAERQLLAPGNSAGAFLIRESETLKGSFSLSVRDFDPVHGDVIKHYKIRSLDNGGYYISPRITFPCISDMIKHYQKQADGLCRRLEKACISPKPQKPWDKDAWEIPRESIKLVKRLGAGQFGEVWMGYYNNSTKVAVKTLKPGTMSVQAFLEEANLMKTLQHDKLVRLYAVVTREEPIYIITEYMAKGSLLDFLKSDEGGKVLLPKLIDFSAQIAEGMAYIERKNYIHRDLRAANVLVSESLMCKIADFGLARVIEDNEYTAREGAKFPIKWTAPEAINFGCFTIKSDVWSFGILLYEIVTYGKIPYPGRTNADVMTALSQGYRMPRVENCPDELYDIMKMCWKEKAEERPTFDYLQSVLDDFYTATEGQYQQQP
T20 sequence (P06241 whole entry): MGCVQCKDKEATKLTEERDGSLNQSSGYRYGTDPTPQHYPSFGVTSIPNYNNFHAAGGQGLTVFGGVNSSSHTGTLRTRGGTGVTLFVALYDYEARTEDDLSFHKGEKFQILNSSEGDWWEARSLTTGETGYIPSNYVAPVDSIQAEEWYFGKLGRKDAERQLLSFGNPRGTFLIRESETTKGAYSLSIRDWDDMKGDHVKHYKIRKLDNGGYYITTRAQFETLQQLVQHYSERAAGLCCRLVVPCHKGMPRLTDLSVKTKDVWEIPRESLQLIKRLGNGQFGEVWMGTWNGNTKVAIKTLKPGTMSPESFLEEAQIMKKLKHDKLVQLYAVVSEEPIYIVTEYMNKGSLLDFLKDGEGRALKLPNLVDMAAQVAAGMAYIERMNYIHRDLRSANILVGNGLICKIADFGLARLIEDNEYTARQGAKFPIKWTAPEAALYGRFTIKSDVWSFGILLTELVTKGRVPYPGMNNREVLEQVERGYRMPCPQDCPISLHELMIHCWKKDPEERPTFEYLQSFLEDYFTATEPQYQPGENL
T17 sequence (P00519 whole entry): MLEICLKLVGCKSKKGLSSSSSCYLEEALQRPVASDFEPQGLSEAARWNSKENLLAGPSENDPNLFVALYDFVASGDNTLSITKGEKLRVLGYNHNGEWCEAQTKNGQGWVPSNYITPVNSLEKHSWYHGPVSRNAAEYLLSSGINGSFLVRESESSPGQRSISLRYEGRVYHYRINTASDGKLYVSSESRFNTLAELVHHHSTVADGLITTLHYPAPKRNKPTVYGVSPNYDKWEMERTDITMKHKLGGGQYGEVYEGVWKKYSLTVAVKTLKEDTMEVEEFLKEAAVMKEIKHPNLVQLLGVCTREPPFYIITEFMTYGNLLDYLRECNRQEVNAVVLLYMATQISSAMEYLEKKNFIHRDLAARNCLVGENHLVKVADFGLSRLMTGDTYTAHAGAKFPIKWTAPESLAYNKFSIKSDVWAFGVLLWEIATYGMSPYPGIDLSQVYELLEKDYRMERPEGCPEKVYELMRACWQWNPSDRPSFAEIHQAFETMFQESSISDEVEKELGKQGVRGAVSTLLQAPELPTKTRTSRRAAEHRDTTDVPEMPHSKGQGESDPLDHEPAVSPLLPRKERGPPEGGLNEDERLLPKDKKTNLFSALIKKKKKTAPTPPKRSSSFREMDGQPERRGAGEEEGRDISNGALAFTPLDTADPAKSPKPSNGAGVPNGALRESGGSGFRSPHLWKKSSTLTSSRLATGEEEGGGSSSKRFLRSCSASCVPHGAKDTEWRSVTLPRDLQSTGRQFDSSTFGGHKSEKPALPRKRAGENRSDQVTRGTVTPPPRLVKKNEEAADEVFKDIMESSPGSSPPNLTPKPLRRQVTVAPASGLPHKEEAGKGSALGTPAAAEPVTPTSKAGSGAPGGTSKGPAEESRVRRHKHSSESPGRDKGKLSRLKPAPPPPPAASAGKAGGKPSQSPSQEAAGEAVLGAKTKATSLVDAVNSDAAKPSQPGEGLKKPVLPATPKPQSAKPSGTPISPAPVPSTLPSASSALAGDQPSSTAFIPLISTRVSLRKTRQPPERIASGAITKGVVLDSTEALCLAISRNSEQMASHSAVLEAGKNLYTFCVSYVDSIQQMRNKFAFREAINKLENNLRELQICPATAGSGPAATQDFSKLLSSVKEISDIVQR
T6 sequence (Q04759 whole entry): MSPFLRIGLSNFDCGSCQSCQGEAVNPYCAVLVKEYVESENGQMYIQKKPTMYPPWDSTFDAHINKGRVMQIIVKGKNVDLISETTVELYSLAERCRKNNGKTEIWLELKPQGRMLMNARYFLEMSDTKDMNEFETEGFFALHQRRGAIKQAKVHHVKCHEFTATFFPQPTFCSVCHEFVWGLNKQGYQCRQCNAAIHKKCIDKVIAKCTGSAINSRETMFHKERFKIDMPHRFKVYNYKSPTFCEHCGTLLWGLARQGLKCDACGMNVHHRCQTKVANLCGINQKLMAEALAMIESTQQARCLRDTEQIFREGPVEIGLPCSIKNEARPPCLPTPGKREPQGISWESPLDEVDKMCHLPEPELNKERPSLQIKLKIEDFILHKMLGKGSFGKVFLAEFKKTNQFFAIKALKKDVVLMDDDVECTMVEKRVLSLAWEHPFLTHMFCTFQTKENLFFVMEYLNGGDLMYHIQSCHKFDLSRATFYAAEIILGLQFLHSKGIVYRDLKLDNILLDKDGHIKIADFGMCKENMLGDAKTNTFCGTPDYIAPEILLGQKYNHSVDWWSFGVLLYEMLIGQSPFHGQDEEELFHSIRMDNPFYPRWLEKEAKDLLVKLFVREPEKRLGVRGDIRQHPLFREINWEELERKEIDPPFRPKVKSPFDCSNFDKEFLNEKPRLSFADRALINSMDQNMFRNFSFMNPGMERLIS
T1 sequence (Q96SB4 whole entry): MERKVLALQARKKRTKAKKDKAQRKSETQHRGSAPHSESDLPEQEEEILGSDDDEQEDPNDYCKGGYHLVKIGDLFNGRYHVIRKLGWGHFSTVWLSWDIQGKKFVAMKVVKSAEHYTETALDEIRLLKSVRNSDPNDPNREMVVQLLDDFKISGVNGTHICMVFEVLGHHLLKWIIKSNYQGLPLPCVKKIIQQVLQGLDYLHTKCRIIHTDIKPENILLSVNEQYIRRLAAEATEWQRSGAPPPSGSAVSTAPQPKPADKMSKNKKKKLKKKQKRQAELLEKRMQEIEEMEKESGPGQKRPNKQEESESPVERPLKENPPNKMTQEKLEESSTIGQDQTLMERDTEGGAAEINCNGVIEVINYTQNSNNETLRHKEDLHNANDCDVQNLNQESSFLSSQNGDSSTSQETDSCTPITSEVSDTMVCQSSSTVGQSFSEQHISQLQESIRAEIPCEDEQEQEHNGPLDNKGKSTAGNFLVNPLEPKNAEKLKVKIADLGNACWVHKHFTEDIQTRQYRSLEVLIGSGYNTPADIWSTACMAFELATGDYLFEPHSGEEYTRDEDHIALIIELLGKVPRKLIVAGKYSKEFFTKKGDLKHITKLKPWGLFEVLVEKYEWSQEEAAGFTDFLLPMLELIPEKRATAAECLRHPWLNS
T2 sequence (Q13177 whole entry): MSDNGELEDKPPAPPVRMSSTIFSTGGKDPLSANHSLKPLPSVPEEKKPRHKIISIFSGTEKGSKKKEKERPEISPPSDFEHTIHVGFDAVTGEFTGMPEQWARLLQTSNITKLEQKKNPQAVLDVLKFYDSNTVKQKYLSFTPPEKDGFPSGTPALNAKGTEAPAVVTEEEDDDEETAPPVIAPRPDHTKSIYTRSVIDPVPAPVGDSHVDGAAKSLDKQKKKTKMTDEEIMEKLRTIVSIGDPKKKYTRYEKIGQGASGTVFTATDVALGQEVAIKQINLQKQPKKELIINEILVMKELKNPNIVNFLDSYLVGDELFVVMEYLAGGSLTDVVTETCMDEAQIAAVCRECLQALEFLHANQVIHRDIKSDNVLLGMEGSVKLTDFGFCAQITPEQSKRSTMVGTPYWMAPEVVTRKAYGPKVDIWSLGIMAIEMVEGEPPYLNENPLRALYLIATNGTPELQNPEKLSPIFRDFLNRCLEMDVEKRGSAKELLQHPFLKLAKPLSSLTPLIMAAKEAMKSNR

Row | remaining activity at 10 µM [2] | remaining activity at 10 µM [3] | remaining activity at 10 µM [4] | remaining activity at 10 µM [5] | remaining activity at 10 µM [6] | remaining activity at 10 µM [7] | remaining activity at 10 µM [8] | remaining activity at 10 µM [9] | remaining activity at 10 µM [10] | remaining activity at 10 µM [11] | remaining activity at 10 µM [12] | remaining activity at 10 µM [13] | remaining activity at 10 µM [14] | remaining activity at 10 µM [15] | Lyn inhibition [16] | remaining activity at 10 µM [16] | remaining activity at 10 µM [17] | Abl inhibition [18] | remaining activity at 10 µM [18] | Structure (SMILES) | Neuroprotection on CGNs (cell viability after serum/potassium deprivation) [1] | other results
1 | 85% | 75% | 96% | 9% | 16% | 98% | 34% | 83% | 17% | 16% | 111% | 55% | 61% | 50% | completely inhibited | 1% | 111% | completely inhibited | 8% | Br.Cc1sc(NCc2ccccc2)nc1-c1c[nH]c2ncc(Br)cc12 [Compound 41, N-Benzyl-4-(5-bromo-1H-pyrrolo[2,3-b]pyridin-3-yl)-5-methylthiazol-2-amine Hydrobromide] | mitigate the physiological senescence and mortality rate | inhibition at 10 µM [5]: > 90%; remaining activity at 10 µM [19]: 93%; remaining activity at 10 µM [20]: 59%; Fyn inhibition [21]: completely inhibited; remaining activity at 10 µM [21]: -2%; remaining activity at 10 µM [22]: 104%; remaining activity at 10 µM [23]: 101%; remaining activity at 10 µM [24]: 66%
2 | 96% | 72% | 99% | 14% | 15% | 23% | 98% | 100% | 27% | 14% | 8% | 62% | 35% | 86% | completely inhibited | 1% | 112% | completely inhibited | 6% | Br.Cc1sc(NCc2ccnc(Cl)c2)nc1-c1c[nH]c2ncccc12 [Compound 43, N-((2-Chloropyridin-4-yl)methyl)-5-methyl-4-(1H-pyrrolo[2,3-b]pyridin-3-yl)thiazol-2-amine Hydrobromide] | mitigate the physiological senescence and mortality rate | inhibition at 10 µM [12]: > 90%; remaining activity at 10 µM [19]: 103%; inhibition at 10 µM [20]: > 90%; remaining activity at 10 µM [20]: 1%; Fyn inhibition [21]: completely inhibited; remaining activity at 10 µM [21]: 0%; remaining activity at 10 µM [22]: 103%; remaining activity at 10 µM [23]: 103%; remaining activity at 10 µM [24]: 28%
